Results: ChEMBL document CHEMBL5291721, “A preclinical secondary pharmacology resource illuminates target-adverse drug reaction associations of marketed drugs” (Nat Commun, 2023)

What was measured:
Thromboxane A2 receptor = target: T1, Thromboxane A2 receptor (Homo sapiens, UniProt P21731)
T1 sequence (P21731 whole entry): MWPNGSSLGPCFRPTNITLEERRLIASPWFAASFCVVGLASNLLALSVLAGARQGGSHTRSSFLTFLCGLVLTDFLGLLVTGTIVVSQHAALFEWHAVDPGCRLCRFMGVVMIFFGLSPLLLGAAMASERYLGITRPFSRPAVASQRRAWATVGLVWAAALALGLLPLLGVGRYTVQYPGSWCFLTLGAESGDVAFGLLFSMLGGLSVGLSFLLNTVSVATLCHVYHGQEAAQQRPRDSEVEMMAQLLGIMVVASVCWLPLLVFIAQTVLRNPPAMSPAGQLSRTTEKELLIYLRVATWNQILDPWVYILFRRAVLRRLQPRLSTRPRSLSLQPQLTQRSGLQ

[1] = target: T2, Alpha-2C adrenergic receptor (Homo sapiens, UniProt P18825); type: functional
T2 sequence (P18825 whole entry): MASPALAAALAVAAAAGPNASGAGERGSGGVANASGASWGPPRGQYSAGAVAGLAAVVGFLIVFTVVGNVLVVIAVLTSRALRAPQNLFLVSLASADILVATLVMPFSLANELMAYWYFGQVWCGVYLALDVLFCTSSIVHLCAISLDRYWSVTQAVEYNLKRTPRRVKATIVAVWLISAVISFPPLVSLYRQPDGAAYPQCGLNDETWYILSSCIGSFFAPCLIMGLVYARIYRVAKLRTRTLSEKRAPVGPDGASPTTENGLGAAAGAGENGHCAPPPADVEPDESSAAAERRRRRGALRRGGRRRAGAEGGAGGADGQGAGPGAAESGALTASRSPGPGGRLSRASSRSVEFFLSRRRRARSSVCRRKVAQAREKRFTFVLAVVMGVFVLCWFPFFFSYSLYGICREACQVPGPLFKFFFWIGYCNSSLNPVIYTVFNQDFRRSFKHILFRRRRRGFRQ

Histamine H2 receptor = Histamine H2 receptor (Homo sapiens, UniProt P25021); type: functional, cell-based
[2] = target: T3, 5-hydroxytryptamine receptor 3A (Homo sapiens, UniProt P46098); type: functional
T3 sequence (P46098 whole entry): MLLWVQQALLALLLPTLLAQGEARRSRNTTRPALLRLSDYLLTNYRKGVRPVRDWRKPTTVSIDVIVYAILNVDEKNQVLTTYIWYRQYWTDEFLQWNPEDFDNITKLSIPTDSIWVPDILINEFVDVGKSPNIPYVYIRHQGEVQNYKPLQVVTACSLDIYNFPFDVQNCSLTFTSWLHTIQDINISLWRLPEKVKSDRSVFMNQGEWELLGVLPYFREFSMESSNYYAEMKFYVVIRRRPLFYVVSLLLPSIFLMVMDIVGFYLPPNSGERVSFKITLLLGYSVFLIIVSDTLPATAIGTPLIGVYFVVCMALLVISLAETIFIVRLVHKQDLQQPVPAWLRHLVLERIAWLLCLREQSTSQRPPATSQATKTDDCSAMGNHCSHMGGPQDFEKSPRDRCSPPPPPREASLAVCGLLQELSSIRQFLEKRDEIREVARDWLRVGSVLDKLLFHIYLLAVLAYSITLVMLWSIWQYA

[3] = target: T4, Muscarinic acetylcholine receptor M2 (Homo sapiens, UniProt P08172); type: functional, cell-based
T4 sequence (P08172 whole entry): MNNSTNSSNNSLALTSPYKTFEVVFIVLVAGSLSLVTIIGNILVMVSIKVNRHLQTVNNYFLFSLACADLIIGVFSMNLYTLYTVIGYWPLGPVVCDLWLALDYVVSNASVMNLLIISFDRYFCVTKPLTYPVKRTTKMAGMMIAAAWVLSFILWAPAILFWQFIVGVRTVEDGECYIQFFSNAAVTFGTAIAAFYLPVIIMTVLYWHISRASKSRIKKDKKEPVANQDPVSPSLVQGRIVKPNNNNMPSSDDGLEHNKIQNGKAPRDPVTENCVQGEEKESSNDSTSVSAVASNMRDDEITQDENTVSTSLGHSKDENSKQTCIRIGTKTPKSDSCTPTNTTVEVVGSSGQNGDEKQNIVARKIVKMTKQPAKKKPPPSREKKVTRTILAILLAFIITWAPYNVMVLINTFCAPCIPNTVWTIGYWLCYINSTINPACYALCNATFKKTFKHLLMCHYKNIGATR

[4] = target: T5, Cholecystokinin receptor type A (Homo sapiens, UniProt P32238)
T5 sequence (P32238 whole entry): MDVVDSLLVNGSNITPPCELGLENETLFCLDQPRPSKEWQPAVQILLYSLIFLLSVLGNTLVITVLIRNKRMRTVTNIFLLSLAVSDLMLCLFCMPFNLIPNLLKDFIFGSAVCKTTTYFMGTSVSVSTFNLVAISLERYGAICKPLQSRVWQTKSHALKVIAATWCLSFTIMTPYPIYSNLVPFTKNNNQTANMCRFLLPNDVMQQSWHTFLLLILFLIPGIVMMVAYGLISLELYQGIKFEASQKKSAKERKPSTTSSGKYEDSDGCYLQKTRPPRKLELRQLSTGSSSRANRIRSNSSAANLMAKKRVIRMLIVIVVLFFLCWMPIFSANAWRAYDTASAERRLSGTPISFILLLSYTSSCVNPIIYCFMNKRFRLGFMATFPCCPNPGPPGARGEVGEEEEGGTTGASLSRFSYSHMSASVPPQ

Motilin receptor = Motilin receptor (Homo sapiens, UniProt O43193)
[5] = target: T6, Type-1 angiotensin II receptor (Homo sapiens, UniProt P30556)
T6 sequence (P30556 whole entry): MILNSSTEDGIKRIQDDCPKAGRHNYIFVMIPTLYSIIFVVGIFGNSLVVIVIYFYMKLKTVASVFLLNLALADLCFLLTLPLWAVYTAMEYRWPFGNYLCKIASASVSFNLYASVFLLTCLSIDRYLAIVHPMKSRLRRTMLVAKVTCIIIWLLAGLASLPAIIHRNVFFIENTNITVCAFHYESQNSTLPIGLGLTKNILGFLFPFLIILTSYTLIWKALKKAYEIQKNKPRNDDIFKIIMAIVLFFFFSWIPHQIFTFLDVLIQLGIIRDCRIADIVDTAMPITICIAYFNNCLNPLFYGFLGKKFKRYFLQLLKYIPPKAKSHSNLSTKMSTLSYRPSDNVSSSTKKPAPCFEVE

Mu-type opioid receptor = Mu-type opioid receptor (Homo sapiens, UniProt P35372); experiment: biochemical; type: functional
[6] = target: Gamma-aminobutyric acid receptor subunit alpha-1 (Rattus norvegicus, UniProt P62813)
Also: assay procedure not described here.

Sequence of Motilin receptor (O43193 whole entry): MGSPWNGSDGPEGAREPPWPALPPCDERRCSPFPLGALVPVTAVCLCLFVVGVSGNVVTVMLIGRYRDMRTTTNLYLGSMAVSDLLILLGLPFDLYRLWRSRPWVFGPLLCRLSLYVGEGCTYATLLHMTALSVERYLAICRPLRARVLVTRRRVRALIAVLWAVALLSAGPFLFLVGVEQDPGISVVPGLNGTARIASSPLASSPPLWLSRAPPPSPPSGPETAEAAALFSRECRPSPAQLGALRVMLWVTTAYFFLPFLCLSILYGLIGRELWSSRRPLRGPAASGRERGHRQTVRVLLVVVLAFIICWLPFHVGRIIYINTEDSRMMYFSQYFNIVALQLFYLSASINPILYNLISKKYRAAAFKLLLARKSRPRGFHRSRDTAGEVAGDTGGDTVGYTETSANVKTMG
Sequence of Histamine H2 receptor (P25021 whole entry): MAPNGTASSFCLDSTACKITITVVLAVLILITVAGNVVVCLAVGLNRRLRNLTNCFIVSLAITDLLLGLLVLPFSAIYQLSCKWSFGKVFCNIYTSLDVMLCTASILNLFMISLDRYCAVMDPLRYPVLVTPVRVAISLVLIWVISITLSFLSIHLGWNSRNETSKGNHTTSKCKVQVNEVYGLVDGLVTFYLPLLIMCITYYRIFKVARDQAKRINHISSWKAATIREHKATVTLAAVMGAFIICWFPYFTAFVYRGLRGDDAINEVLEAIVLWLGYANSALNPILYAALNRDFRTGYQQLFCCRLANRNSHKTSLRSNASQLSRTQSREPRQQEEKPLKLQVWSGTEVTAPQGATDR
Sequence of Gamma-aminobutyric acid receptor subunit alpha-1 (P62813 whole entry): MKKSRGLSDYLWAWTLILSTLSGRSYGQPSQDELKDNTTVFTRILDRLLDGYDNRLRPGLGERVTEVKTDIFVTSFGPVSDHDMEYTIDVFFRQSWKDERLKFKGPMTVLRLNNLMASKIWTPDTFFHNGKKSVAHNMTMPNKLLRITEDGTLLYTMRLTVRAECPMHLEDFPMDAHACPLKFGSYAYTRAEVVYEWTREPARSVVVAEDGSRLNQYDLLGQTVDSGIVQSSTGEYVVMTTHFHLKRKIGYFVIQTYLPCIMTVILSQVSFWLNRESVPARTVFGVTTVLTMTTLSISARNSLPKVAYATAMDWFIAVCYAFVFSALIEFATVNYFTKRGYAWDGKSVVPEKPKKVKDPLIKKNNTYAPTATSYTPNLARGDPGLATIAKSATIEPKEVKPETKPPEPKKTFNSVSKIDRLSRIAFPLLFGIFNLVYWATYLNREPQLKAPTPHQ
Sequence of Mu-type opioid receptor (P35372 whole entry): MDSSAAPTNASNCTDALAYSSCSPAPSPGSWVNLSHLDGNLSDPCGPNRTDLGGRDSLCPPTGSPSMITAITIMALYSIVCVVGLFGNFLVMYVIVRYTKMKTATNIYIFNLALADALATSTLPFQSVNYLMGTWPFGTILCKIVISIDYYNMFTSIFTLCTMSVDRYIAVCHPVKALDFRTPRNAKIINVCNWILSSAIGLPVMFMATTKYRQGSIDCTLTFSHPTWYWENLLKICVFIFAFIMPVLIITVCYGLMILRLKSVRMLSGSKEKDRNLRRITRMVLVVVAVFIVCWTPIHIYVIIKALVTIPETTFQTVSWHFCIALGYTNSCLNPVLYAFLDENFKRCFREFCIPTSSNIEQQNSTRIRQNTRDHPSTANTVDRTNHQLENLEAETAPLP

SMILES | AC50 (Thromboxane A2 receptor) [µM] | AC50 [1] [µM] | AC50 (Histamine H2 receptor) [µM] | AC50 [2] [µM] | AC50 [3] [µM] | AC50 [4] [µM] | AC50 (Motilin receptor) [µM] | AC50 [5] [µM] | AC50 (Mu-type opioid receptor) [µM] | AC50 [6] [µM]
CCCCCCCCCCCC[N+](C)(C)CCOc1ccccc1 [DOMIPHEN] | > 30 | 4.2 | > 30 | > 30 | 14 | > 30 | 3 | 14 | > 30 | > 30
COc1c(N2CCNC(C)C2)c(F)cc2c(=O)c(C(=O)O)cn(C3CC3)c12 (stereo not given) [GATIFLOXACIN] | > 10 | > 10 | > 30 | > 30 | > 10 | > 10 | > 10 | > 10 | 28 | > 10
CCCCCN(C)CCC(O)(P(=O)(O)O)P(=O)(O)O [IBANDRONIC ACID] | > 30 | > 30 | > 30 | > 30 | > 30 | > 30 | > 30 | 6.2 | 8.5 | > 30
C1=Cc2cccc(OCC3CNCCO3)c2C1 (stereo not given) [INDELOXAZINE] | > 30 | > 30 | > 30 | 25 | > 30 | > 30 | > 30 | > 30 | > 30 | > 30
O=C(CCCCC(=O)Nc1c(I)cc(I)c(C(=O)O)c1I)Nc1c(I)cc(I)c(C(=O)O)c1I [IODIPAMIDE] | > 10 | > 10 | > 30 | > 30 | > 10 | > 10 | > 10 | > 10 | > 30 | > 10
CC(C)[N+](C)(CCC(C(N)=O)(c1ccccc1)c1ccccc1)C(C)C [ISOPROPAMIDE] | > 10 | > 10 | > 10 | > 30 | > 10 | > 10 | > 10 | > 10 | > 30 | > 10
COC(=O)C1=C(C)NC(C)=C(C(=O)OC(C)C)C1c1cccc2nonc12 (stereo not given) [ISRADIPINE] | 20.1 | > 30 | > 30 | > 30 | > 10 | > 30 | 14.7 | > 10 | > 30 | > 10
COc1ccc(C(=O)NCc2ccc(OCCN(C)C)cc2)cc1OC [ITOPRIDE] | > 30 | > 30 | > 30 | > 30 | > 30 | > 30 | > 30 | > 30 | > 30 | > 30
